Laboratory results reported in ChEMBL document CHEMBL1158244, “A new norcembranoid dimer from the red sea soft coral Sinularia gardineri” (1996).

Key:
Type in all cases: functional
Candida albicans = assay: Antifungal activity against Candida albicans B311 at 1 mg/mL; conditions: read-out: IZ
Cryptococcus neoformans = assay: Antifungal activity against Cryptococcus neoformans at 1 mg/mL; conditions: read-out: IZ
SK-MEL-28 = assay: Cytotoxicity against human SK-MEL-28 cells
HT-29 = assay: Cytotoxicity against human HT29 cells
A549 = assay: Cytotoxicity against human A549 cells
P388 = assay: Cytotoxicity against mouse P388 cells

Structure (SMILES) | zone of inhibition at 1000 µg/mL (Candida albicans) | zone of inhibition at 1000 µg/mL (Cryptococcus neoformans) | Activity (SK-MEL-28) | Activity (HT-29) | Activity (A549) | Activity (P388)
C[C@@H]1[C@H](O)[C@@H](C)/C=C/C=C/C=C/C=C/C=C/C=C/C=C/[C@H](O[C@@H]2O[C@H](C)[C@@H](O)[C@H](N)[C@@H]2O)C[C@@H]2O[C@](O)(C[C@@H](O)C[C@@H](O)[C@H](O)CC[C@@H](O)C[C@@H](O)CC(=O)O[C@H]1C)C[C@H](O)[C@H]2C(=O)O [AMPHOTERICIN B] | 12 mm | 10 mm |  |  |  | 
CC(C)C1=C[C@@H]2[C@H](CC[C@@]2(C)O)[C@@](C)(O)CC1 [GUAIANEDIOL] |  |  | 5 µg/mL | 5 µg/mL | 2.5 µg/mL | 1 µg/mL
C=C(C)[C@H]1CC[C@@]23O[C@@H]2[C@@H](C[C@@]2(C)CC(=O)[C@H](CC(=O)C1)O2)OC(=O)[C@@]12CC[C@H](C(=C)C)CC(=O)C[C@H]4O[C@](C)(CC4=O)C[C@@H](OC3=O)[C@@H]1O2 [SINGARDIN] | 3 mm | 3 mm | 5 µg/mL | 5 µg/mL | 2.5 µg/mL | 1 µg/mL
